The data set can be described thus: Metabolic stability in cryopreserved hepatocytes, mouse. Particulars: mouse, cryopreserved hepatocytes; read-out: Hepatocyte stability t1/2. In kind it is in vitro ADME. The procedure: page 34: UHPLC-MS/MS System: Chromatographic separation was performed on an Acquity UPLC BEH […] with 6500+ Qtrap system. […] software suite. The UPLC column was maintained at 55 °C. Mobile phase A was 0.1% formic acid in MilliQ H2O and Mobile phase B was 0.1% formic acid in acetonitrile. The flow rate was 0.9 […] The mass spectrometer was operated in positive-ion mode with electrospray ionization. MRM transition m/z […] plasma stability and plasma protein binding. The following MS parameters were employed for analyte measurements: ion spray voltage 5 kV, temperature 550 °C, gas 1 and gas 2 were 60, entrance potential (EP): 10 V, declustering potential (DP): 50 V, collision energy (CE): 27 V, and collision cell exit potential (CXP): 16 V. Metabolic Stability in mouse and human cryopreserved hepatocytes. 10 mM test compounds were provided by Compound Sample Group. Diluted 10 mM test compounds and 30 mM positive control compounds (7-ethoxycoumarin) to 1 mM and 3 mM with DMSO in 96-well plates. Diluted 1 mM test compounds and 3 mM positive control compounds to 100 μM and 300 μM dosing solutions with ACN. Cryopreserved cells were thawed, isolated and suspended in Incubation Medium, then diluted with pre-warmed Incubation Medium to 0.5 × 10^6cells/mL. Added 198 μL of pre-warmed cell suspensions in 96 -well plates. Transferred 125 μL of stop solution (acetonitrile containing 200 ng/mL tolbutamide and 200 ng/mL labetalol as internal standards) in a set of pre- labeled 96-well plates. Spike d 2 μL dosing solution to each well of 96 -well plates in duplicates. For T0 Samples, mix ed to achieve a homogenous suspension for about 1 min, then immediately transferred 25 μL of each sample into well containing 125 μL of ice -cold stop solution followed by mixing. Incubated all plates at 37°C in a 95% humidified incubator at 5% CO 2 to start the reactions page 35: with constant shaking at about 600 rpm. At 15, 30, 60 and 90 min, mixed samples and then transferred 25 μL of each sample at each time point to well containing 125 μL of ice -cold stop solution followed by mixing. Medium Control (MC) sample plates (labeled as T0-MC and T90- MC) were prepared at T0 and T90 by adding the same components to each well except cell suspensions. At each corresponding time point, stopped the reactions by removing the plates from incubator and mixing with 125 μL of ice-cold stop solution. Vortexed the plates immediately on a plate shaker at 500 rpm for 10 minutes. Then, centrifuge d all sample plates at 3220 x g for 20 min at 4°C. After centrifugation, 80 μL/well of supernatant in the sample plates were transferred to another set of pre-labeled 96-well plates which containing 240 μL of ultra pure water according to the plate map. Analytical plates were sealed and stored at 4°C until LC-MS/MS analysis. Thawing Medium: Williams' Medium E containing 5% fetal bovine serum and 30% Perc oll solution and other supplements. Incubation Medium: Williams' Medium E (no phenol red) containing 2 mM L-Glutamine and 25 mM HEPES. Stop Solution: Acetonitrile containing 200 ng/mL tolbutamide and labetalol as internal standards. Dilution Solution: Ultra-pure water. The remaining percents of test articles after incubation were calculated by the follow equations: Equation ( 6): Use equation of first order kinetics [NT] […] The data was […] concatenated with a reversed decoy database for evaluating False Discovery Rate (FDR). […]

Drawing on PMC10791743, “Selective CK1α degraders exert antiproliferative activity against a broad range of human cancer cell lines” (Nature Communications, 2024), this text covers half-life for one molecule.

SMILES strings stand for the structures.

For the molecule `O=C1CCC(N2Cc3cc(Nc4noc5ccccc45)ccc3C2=O)C(=O)N1` (stereo not shown) [SJ3149], the half-life at 1 µM was over 3.6 h.
